Like-named read-outs stand apart in the source and are kept apart here.
Tests used:
[1] = system: HeLa cells expressing H2B-GFP; assay: Inhibition of cell proliferation (GI50) by nuclear counts, IN Cell Analyser; type: cell-based, human; details: for GI50 (HeLa) / GI50: concentration causing 50% inhibition of cell proliferation, nuclear counts every 24 hours; for GI50: Homo sapiens; for GI50 / Anti-proliferative activity (effect of substitution, in words): HeLa; for Anti-proliferative activity (effect of substitution, in words): text comment on Table 3
Procedure: Table 3 HeLa cells expressing H2B-GFP were plated in 96-well plates and exposed to concentrations ranging from 100 μM to […] of the indicated compounds C1-C78. The number of cells was then determined every 24 hours by imaging of the plates using an IN Cell Analyser (GE Healthcare), followed by measurement of the number of intact cell nuclei using Developer™ software (GE Healthcare). Drug concentrations that cause 50% inhibition of cell proliferation (GI50) were determined from the nuclear counts using GraphPad Prism software or ED50v10 freeware.

[2] = system: HeLa cells expressing H2B-GFP; assay: Induction of mitotic arrest (EC50), mitotic index by phospho-histone 3 staining; type: cell-based; details: Homo sapiens, concentration for 50% induction of mitotic arrest, overnight, read-out: EC50 (mitosis) (HeLa)
Procedure: Parallel plates were treated overnight with the compounds to visualize the mitotic cells by staining with anti-phospho-histone 3 and Alexafluor 546 nm secondary antibodies after fixation with 4% paraformaldehyde. Following imaging of the nuclear GFP and phospho-histone 3 signals using an IN Cell Analyser (GE Healthcare), determination of the mitotic index by analysis of the images with Developer™ software (GE Healthcare) permitted estimation of the concentration that leads to 50% induction of the mitotic arrest (EC50). It can be seen that inhibition of cell proliferation and mitosis correlate well for the compounds tested.

[3] = system: HeLa cells expressing H2B-GFP; assay: Perturbation of mitotic spindle organisation and assembly, anti-β-tubulin staining; type: cell-based, human; details: 20 μM, overnight
Procedure: HeLa cells stably expressing a green fluorescent marker of nuclear DNA (H2B-GFP) were exposed overnight to carrier (DMSO) or 20 μM compounds A1 and B3. The cells were then fixed with methanol, stained with mouse monoclonal anti-β-tubulin antibody and Alexafluor 546 nm goat anti-mouse antibody, and fluorescent signal visualised by microscopy. The open circle indicates a cell with a perturbed mitotic spindle while the arrow indicates a cell with a mostly disassembled mitotic spindle.
These cells were exposed overnight to carrier (0.1% (v/v) DMSO) or an equivalent volume of DMSO containing compounds A1 and B3 (final concentration in the culture medium was 20 μM). The cells were then briefly rinsed with phosphate-buffered saline (PBS) prior to fixation with 100% methanol at −20° C. The fixed cells were then stained with mouse monoclonal anti-β-tubulin antibody and Alexafluor 546 nm goat anti-mouse antibody (diluted 400× from commercial stocks into PBS containing 10 mg/ml bovine serum albumin (BSA)). The GFP and 546 nm fluorescence signals were then visualised using a microscope equipped for digital confocal epifluorescence imaging. The open circle in FIG. 1 represents a cell with a perturbed mitotic spindle while the arrow points to a cell with a mostly unassembled mitotic spindle.

[4] = system: HeLa cells expressing H2B-GFP; assay: Induction of apoptosis, Annexin V binding; type: cell-based, human; details: overnight; 20 μM compound A1 or 100 nM paclitaxel
Procedure: HeLa cells were exposed overnight to 20 μM compound A1 or 100 nM paclitaxel, stained with a fluorescent Annexin V marker of apoptosis and visualised by epifluorescence microscopy following fixation.
FIG. 3 The H2B-GFP-expressing HeLa cells were treated overnight with 20 μM compound A1 or 100 nM paclitaxel. The cells were then exposed to Annexin-V tagged with Alexafluor 546 nm and visualized using an epifluorescence microscope equipped for digital imaging following fixation with 4% para-formaldehyde.

GI50 [1] | EC50 ([2]; values in nM) | Structure (SMILES) | also measured
– | – | COc1cccc(OC)c1/C=N/NC(=S)Nc1cccc(C)c1 [C21] | GI50 (HeLa) [1]: no activity
90 nM | 150 nM | COc1ccccc1/C=N/NC(=S)Nc1ccccc1C [C6] | –
13 nM | – | CCc1ccccc1NC(=S)N/N=C/c1ccccc1OC [CB45] | Anti-proliferative activity (effect of substitution, in words) [1]: greatly increase the anti-proliferative activity
– | ~500 nM | CCOc1ccccc1NC(=S)N/N=C/c1cnccc1C [CB71] | –
– | ~2000 nM | CCOCCOc1ccccc1NC(=S)N/N=C/c1ccccc1OC [CB63] | –
– | ~10000 nM | COc1ccccc1/C=N/NC(=S)Nc1cc(-c2ccccc2)ccc1OC [CB59] | –
~3000 nM | – | COC(=O)c1sccc1NC(=S)N/N=C/c1ccccc1OC [CB50] | –
– | ~10000 nM | COc1ccccc1/C=N/NC(=S)Nc1cc(C(=O)O)ccc1OC [CB58] | –
50 nM | 100 nM | COc1ccccc1/C=N/NC(=S)Nc1ccccc1Br [CB35] | –
500 nM | – | COc1ccccc1/C=N/NC(=S)Nc1cc(C)cc(C)c1 [CB30] | –
700 nM | – | COc1ccccc1/C=N/NC(=S)Nc1cccc(C)c1 [C1] | EC50 ([2]; values given in μM): ~1000 nM
– | > 10000 nM | CCOc1ccccc1NC(=S)N/N=C/c1cc(N(O)O)ccc1OC [CB68] | –
17 nM | – | COc1ccccc1/C=N/NC(=S)Nc1cccnc1OC [CB54] | –
– | ~1000 nM | CCOc1ccccc1NC(=S)N/N=C/c1cccnc1OC [CB73] | –
– | > 10000 nM | COc1ccccc1/C=N/NC(=S)Nc1ccc(-c2ccccc2)cc1OC(F)(F)F [CB64] | –
2000 nM | – | COc1ccc(NC(=S)N/N=C/c2ccccc2OC)cc1 [C10] | EC50 ([2]; values given in μM): > 1000 nM
100 to 300 nM | – | COc1ccccc1/C=N/NC(=S)Nc1cnccc1C(F)(F)F [CB48] | –
25 nM | ~70 nM | COc1ccccc1/C=N/NC(=S)Nc1ccccc1OC [C15] | Anti-proliferative activity (effect of substitution, in words) [1]: greatly increase the anti-proliferative activity
– | – | Cc1cccc(NC(=S)N/N=C/c2ccccc2C)c1 [C22] | GI50 (HeLa) [1]: no activity
700 nM | ≥ 30 nM | COc1ccccc1/C=N/NC(=S)Nc1ccc(C)cc1 [C18] | –
~3000 nM | – | COc1ccccc1/C=N/NC(=S)Nc1ccc(F)c(Cl)c1 [C28] | –
~3000 nM | – | COc1ccccc1/C=N/NC(=S)Nc1c(C)cccc1OC [CB38] | –
100 nM | 300 nM | COc1ccccc1/C=N/NC(=S)Nc1ccccc1Cl [C8] | –
1300 nM | – | COc1cccc(NC(=S)N/N=C/c2ccccc2OC)c1 [C26] | EC50 ([2]; values given in μM): ~1000 nM
1000 nM | – | COc1ccccc1/C=N/NC(=S)Nc1ccc(F)c(C)c1 [CB29] | –
– | > 10000 nM | COc1ccccc1/C=N/NC(=S)Nc1ccc2c(c1)OCO2 [CB76] | –

GI50 [1] | EC50 ([2]; values in nM) | Structure (SMILES) | also measured
– | ~1000 nM | CCOc1ccccc1NC(=S)N/N=C/c1cccnc1N [CB70] | –
– | ~1000 nM | CCOc1ccccc1NC(=S)N/N=C/c1cc(O)ccc1OC [CB74] | –
~5000 nM | – | COc1ccccc1/C=N/NC(=S)Nc1ccc(C(C)C)cc1 [CB43] | –
– | ~200 nM | COc1ccccc1/C=N/NC(=S)Nc1ccc(F)cc1C(F)(F)F [CB61] | –
~1000 nM | – | COc1ccccc1/C=N/NC(=S)Nc1cccc(C)n1 [CB55] | –
– | – | Fc1ccc(NC(=S)N/N=C/c2ccccc2)cc1 [A1, BENZALDEHYDE N-(4-FLUOROPHENYL)THIOSEMICARBAZONE] | Effect on mitotic spindle organisation and assembly [3]: substantial alterations in the spatial organisation of mitotic spindle fibres and chromosomes; Induction of apoptotic cells (Annexin-V binding) [4]: induction of apoptotic cells
– | > 10000 nM | CCN(CC)CCOc1ccccc1NC(=S)N/N=C/c1ccccc1OC [CB66] | –
~10000 nM | – | COc1ccccc1/C=N/NC(=S)Nc1cnccc1C [CB53] | –
5000 nM | – | COc1ccccc1/C=N/NC(=S)Nc1ccccc1 [C7] | –
≥ 20000 nM | – | COc1ccccc1/C=N/NC(=S)NC1CCCCC1 [C12] | –
11 nM | 10 nM | CCOc1ccccc1NC(=S)N/N=C/c1ccccc1OC [CB34] | Anti-proliferative activity (effect of substitution, in words) [1]: greatly increase the anti-proliferative activity
4000 nM | – | COc1ccccc1/C=N/NC(=O)Nc1cccc(C)c1 [C14] | –
– | 100 nM | COc1ccccc1/C=N/NC(=S)Nc1ccc(N)c(C(F)(F)F)c1 [CB65] | –
~1000 nM | – | COc1ccccc1/C=N/NC(=S)Nc1cccc(F)c1 [C17] | –
≥ 20000 nM | – | COc1ccccc1/C(C)=N/NC(=S)Nc1cccc(C)c1 [C3] | –
– | > 3000 nM | CCOc1ccccc1NC(=S)N/N=C/c1cnccc1OC [CB67] | –
500 nM | – | FC(F)(F)c1ccccc1NC(=S)N/N=C/c1cccc2c1OCO2 [CB40] | –
15 nM | 50 nM | COc1ccccc1/C=N/NC(=S)Nc1cc(Cl)ccc1OC [CB31] | –
– | > 10000 nM | CCOc1ccccc1NC(=S)N/N=C/c1ccncc1N [CB72] | –
≥ 20000 nM | – | COc1ccccc1/C=N/N(C)C(=S)N(C)c1cccc(C)c1 [C4] | –
9.5 nM | – | COc1ccccc1/C=N/NC(=S)Nc1ccc(C)cc1C [CB42] | Anti-proliferative activity (effect of substitution, in words) [1]: greatly increase the anti-proliferative activity
– | ~500 nM | COc1ccccc1/C=N/NC(=S)Nc1ccccc1OC(F)(F)F [CB60] | –
500 nM | – | COc1ccccc1/C=N/NC(=S)Nc1cccc(Cl)c1 [C24] | –
~3000 nM | – | COc1ccccc1/C=N/NC(=S)Nc1ccccc1C#N [CB37] | –
~15000 nM | – | COc1ccccc1/C=N/N(C)C(=S)Nc1cccc(C)c1 [C2] | –
– | – | COc1cccc(/C=N/NC(=S)Nc2cccc(C)c2)c1OC [C20] | GI50 (HeLa) [1]: no activity

GI50 [1] | EC50 ([2]; values in nM) | Structure (SMILES) | also measured
~5000 nM | – | COc1ccccc1/C=N/NC(=S)Nc1c(C)cccc1C [CB44] | –
100 to 300 nM | – | COc1ccccc1/C=N/NC(=S)Nc1cccnc1C [CB52] | –
3 nM | – | COc1ccccc1/C=N/NC(=S)Nc1ccccc1C(C)C [CB46] | Anti-proliferative activity (effect of substitution, in words) [1]: greatly increase the anti-proliferative activity
≥ 20000 nM | – | COc1ccccc1/C=N/NC(=S)Nc1ccc(C(F)(F)F)cc1 [C23] | –
– | > 10000 nM | COc1ccccc1Nc1nnc(-c2ccccc2OC)[nH]1 [CB78] | –
~5000 nM | – | COc1ccccc1/C=N/NC(=S)NC(c1ccccc1)c1ccccc1 [CB41] | –
≥ 20000 nM | – | Cc1cccc(NC(=S)N/N=C/c2ccccc2F)c1 [C27] | –
1000 nM | – | C#Cc1ccccc1NC(=S)N/N=C/c1ccccc1OC [CB33] | –
– | ~2000 nM | COc1ccccc1/C=N/NC(=S)Nc1ccccc1CCO [CB57] | –
25 nM | – | COc1ccccc1/C=N/NC(=S)Nc1cccc(Cl)c1OC [CB32] | –
~20000 nM | – | COc1ccccc1/C=N/NC(=S)Nc1ccc(C#N)cc1 [C5] | –
~300 nM | – | COc1cc(C)c(NC(=S)N/N=C/c2ccccc2OC)cn1 [CB47] | –
100 to 300 nM | – | COc1ccccc1/C=N/NC(=S)Nc1cccc2ccccc12 [CB49] | –
– | ~50 nM | COc1ccccc1/C=N/NC(=S)Nc1ccc(Cl)cc1C(F)(F)F [CB62] | –
1000 nM | – | COc1ccccc1/C=N/NC(=S)Nc1ccc(Cl)cc1 [C13] | –
~3000 nM | – | COc1ccccc1/C=N/NC(=S)Nc1cccnc1Cl [CB39] | –
– | 20 nM | COc1ccccc1/C=N/NC(=S)Nc1ccc(Cl)cc1Cl [CB75] | Anti-proliferative activity (effect of substitution, in words) [1]: greatly increase the anti-proliferative activity
– | ~1000 nM | COc1ccccc1/C=N/NC(=S)Nc1ccccc1OCC(C)C [CB56] | –
2000 nM | – | COc1ccccc1/C=N/NC(=S)Nc1cccc(C#N)c1 [C11] | –
– | – | COc1ccccc1/C=N/NC(=S)NCc1ccccc1 [C25] | GI50 (HeLa) [1]: no activity
2600 nM | – | COc1ccccc1/C=N/NC(=S)Nc1cc(Cl)cc(Cl)c1 [C16] | –
– | > 10000 nM | COc1ccccc1/C=N/NC(=S)Nc1cccc2c1CCNC2 [CB69] | –
– | ~2000 nM | COc1ccccc1/C=N/NC(=S)Nc1cccnc1 [CB77] | –
~10000 nM | – | COc1ccnc(NC(=S)N/N=C/c2ccccc2OC)c1 [CB51] | –
≥ 15000 nM | – | COc1ccc(OC)c(/C=N/NC(=S)Nc2cccc(C)c2)c1 [C19] | –
~5000 nM | – | COc1ccccc1/C=N/NC(=S)NCc1cccc(C)c1 [CB36] | –

Source: US20120238604A1, “CYTOTOXIC COMPOUNDS” (Molecular Discovery Systems, priority 2009, published 2012)
